From patent publication US20210038607A1, “OXADIAZOLYLTHIOPHENE DERIVATIVES USEFUL AS HISTONE DEACETYLASE INHIBITORS” (Karus Therapeutics Limited, priority 2018, published 2021)

Assays:
Human HDAC8 = biological target: T1, Human HDAC8 (Homo sapiens, UniProt Q9BY41); test: HDAC8 biochemical assay, AMC-labeled peptide substrate; conditions: read-out: HDAC Isoform IC50 (nM) 8
T1 construct: full length with C-terminal His tag, MW=42.6 kDa; His (C); host or cells: baculovirus expression system
T1 sequence (Q9BY41 1-377): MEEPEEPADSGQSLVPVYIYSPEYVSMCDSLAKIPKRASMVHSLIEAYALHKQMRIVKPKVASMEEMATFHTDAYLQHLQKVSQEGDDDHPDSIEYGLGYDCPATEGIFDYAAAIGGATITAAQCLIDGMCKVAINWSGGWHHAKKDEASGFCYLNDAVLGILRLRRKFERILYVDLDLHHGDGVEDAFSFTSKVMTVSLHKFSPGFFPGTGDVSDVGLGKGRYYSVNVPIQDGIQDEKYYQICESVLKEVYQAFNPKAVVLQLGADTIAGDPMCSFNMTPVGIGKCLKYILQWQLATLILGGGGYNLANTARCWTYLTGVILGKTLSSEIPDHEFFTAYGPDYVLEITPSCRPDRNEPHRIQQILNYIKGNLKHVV
Procedure, shortened: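 Full-length human HDAC8 with C-terminal His tag, baculovirus-expressed, 1 ng/ul, with 100 µM RHK(Ac)K(Ac)AMC substrate in Tris-HCl pH8.0 buffer with BSA, 1% DMSO. Incubated 2 h at 30° C, then developer added to cleave deacetylated substrate; fluorescence read at 360/460 Ex/Em.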

Human HDAC9 = biological target: T2, Human HDAC9 (Homo sapiens, UniProt Q9UKV0); test: HDAC9 biochemical assay, class IIa-specific substrate; conditions: read-out: HDAC Isoform IC50 (nM) 9
T2 construct: amino acids 604-1066 with C-terminal His tag; His (C); host or cells: baculovirus expression system
T2 sequence (Q9UKV0 604-1066 isoform Q9UKV0-5): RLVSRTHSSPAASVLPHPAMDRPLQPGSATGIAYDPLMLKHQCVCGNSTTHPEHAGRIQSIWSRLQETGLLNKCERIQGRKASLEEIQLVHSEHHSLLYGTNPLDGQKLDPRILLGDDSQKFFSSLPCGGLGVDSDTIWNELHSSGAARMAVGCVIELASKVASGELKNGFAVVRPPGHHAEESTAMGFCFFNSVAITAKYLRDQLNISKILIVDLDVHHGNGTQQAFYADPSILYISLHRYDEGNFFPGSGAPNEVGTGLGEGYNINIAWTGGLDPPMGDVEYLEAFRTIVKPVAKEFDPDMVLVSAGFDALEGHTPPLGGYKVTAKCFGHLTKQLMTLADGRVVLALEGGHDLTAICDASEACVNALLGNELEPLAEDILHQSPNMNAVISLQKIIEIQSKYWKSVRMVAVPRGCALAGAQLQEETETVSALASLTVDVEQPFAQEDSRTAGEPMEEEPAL
Procedure, shortened: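 HDAC9 residues 604-1066 (C-terminal His tag, baculovirus-expressed) at 0.06 ng/ul with 50 μM class IIa substrate Boc-Lys(trifluoroacetyl)-AMC in Tris-HCl pH 8.0 buffer with BSA and 1% DMSO. 30 min at room temperature, then developer added; fluorescence read at 360/460 nm Ex/Em.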

Human HDAC4 = biological target: T3, Human HDAC4 (Homo sapiens, UniProt P56524); test: HDAC4 biochemical assay, class IIa-specific substrate; conditions: read-out: HDAC Isoform IC50 (nM) 4
T3 construct: amino acids 627-1085 with N-terminal GST tag; GST (N); host or cells: baculovirus expression system
T3 sequence (P56524 627-1084 limits assumed): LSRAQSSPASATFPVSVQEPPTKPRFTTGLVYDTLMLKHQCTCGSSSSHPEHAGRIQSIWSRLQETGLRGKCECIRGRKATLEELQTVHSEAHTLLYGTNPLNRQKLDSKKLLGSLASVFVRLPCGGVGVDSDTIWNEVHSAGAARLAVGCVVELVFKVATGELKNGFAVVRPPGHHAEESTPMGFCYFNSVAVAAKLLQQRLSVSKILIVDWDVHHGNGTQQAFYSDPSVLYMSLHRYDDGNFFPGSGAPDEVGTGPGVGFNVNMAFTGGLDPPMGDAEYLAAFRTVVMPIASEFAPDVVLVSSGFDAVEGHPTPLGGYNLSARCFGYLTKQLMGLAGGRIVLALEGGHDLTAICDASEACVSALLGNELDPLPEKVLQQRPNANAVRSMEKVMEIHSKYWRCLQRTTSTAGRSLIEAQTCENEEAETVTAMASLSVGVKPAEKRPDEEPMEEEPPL
Procedure, shortened: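 GST-tagged human HDAC4 (aa 627-1085, baculovirus) at 0.004 ng/ul was incubated 30 min at room temperature with 50 μM class IIa-specific substrate BOC-Lys(trifluoroacetyl)-AMC in Tris-HCl pH 8.0 buffer with BSA, 1% DMSO. Developer then released AMC, read at 360/460 nm.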

Human HDAC10 = biological target: T4, Human HDAC10 (Homo sapiens, UniProt Q969S8); test: HDAC10 biochemical assay, AMC-labeled peptide substrate; conditions: read-out: HDAC Isoform IC50 (nM) 10
T4 construct: Human HDAC10 (a.a. 1-481); GST (N); His (C); host or cells: baculovirus expression system
T4 sequence (Q969S8 1-481): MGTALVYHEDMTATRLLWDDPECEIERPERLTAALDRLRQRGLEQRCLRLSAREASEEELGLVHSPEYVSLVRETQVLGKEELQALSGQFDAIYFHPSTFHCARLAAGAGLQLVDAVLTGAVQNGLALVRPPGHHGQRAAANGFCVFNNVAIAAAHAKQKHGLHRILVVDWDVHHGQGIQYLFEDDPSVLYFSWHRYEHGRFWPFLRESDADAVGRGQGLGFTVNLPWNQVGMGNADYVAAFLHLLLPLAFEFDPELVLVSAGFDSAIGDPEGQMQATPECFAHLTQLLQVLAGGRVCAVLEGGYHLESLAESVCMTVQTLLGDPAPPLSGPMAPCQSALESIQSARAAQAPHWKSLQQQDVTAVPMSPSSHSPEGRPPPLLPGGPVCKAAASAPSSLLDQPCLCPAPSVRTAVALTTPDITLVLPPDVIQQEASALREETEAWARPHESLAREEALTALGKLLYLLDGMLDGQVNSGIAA
Procedure, shortened: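 Baculovirus-expressed GST/His-tagged human HDAC10 (aa 1-481), 12 ng/ul, incubated with 50 μM RHKK(Ac)AMC in Tris pH 8.0 buffer with BSA and 1% DMSO, 2 h at 30 °C. Developer then releases AMC, read at 360/460 nm.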

Human HDAC2 = biological target: T5, Human HDAC2 (Homo sapiens, UniProt Q92769); test: HDAC2 biochemical assay, AMC-labeled peptide substrate; conditions: read-out: HDAC Isoform IC50 (nM) 2
T5 construct: full length with C-terminal GST-tag; GST (C); host or cells: baculovirus expression system
T5 sequence (Q92769 whole entry, canonical isoform): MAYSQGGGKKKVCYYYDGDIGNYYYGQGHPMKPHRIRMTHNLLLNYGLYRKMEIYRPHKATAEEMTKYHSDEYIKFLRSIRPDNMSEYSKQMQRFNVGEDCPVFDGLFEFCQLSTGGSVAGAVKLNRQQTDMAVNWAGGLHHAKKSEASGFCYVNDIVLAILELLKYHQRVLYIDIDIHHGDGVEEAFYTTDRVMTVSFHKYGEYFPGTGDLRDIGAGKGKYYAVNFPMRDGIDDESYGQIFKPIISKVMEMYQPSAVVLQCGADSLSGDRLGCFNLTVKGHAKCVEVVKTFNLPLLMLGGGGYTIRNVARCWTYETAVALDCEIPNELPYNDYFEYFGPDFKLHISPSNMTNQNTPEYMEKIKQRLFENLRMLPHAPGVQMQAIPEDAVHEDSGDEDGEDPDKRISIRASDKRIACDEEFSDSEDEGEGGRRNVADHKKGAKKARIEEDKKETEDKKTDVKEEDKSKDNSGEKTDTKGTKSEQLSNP
Procedure, shortened: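 Full-length human HDAC2 with C-terminal GST tag, baculovirus-expressed, at 0.07 ng/ul with 50 μM RHKK(Ac)AMC substrate in Tris-HCl pH8.0 buffer with BSA, 1% DMSO final. Incubated 1 hour at 30° C with compounds, then developer added; fluorescence read at 360/460 Ex/Em.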

Human HDAC5 = biological target: T6, Human HDAC5 (Homo sapiens, UniProt Q9UQL6); test: HDAC5 biochemical assay, class IIa-specific substrate; conditions: read-out: HDAC Isoform IC50 (nM) 5
T6 construct: full length with C-terminal His tag, MW=51.1 kDa; His (C); host or cells: baculovirus expression system
T6 sequence (Q9UQL6 656-1122 limits assumed): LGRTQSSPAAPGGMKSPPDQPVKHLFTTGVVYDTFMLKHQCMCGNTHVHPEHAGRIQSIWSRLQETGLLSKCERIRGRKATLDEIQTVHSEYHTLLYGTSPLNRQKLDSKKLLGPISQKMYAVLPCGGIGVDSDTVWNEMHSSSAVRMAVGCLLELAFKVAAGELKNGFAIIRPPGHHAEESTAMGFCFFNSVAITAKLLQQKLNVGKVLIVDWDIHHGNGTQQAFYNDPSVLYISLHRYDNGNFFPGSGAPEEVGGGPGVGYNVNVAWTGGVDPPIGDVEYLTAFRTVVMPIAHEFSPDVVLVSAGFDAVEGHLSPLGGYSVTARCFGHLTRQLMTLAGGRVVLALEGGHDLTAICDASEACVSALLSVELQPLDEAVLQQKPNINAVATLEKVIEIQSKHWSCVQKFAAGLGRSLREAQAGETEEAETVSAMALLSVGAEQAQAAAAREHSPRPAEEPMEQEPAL
Procedure, shortened: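 Full-length C-terminal His-tagged HDAC5 from baculovirus (0.05 ng/ul) incubated 30 min at room temperature with 50 μM Boc-Lys(trifluoroacetyl)-AMC and compound, Tris pH 8.0 buffer with BSA, 1% DMSO. Developer then releases AMC; fluorescence 360/460 nm.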

| IC50 (Human HDAC8) | IC50 (Human HDAC9) | IC50 (Human HDAC4) | IC50 (Human HDAC10) | IC50 (Human HDAC2) | IC50 (Human HDAC5) | SMILES |
| --- | --- | --- | --- | --- | --- | --- |
| ≤ 10000 nM | ≤ 1000 nM | ≤ 500 nM | > 10000 nM | > 10000 nM | ≤ 500 nM | O=C(c1ccc(N(Cc2ccc(-c3noc(C(F)(F)F)n3)s2)c2cnccn2)nn1)N1CCOCC1 [Example DS, 6-(Morpholine-4-carbonyl)-N-(pyrazin-2-yl)-N-({5-[5-(trifluoromethyl)-1,2,4-oxadiazol-3-yl]thiophen-2-yl}methyl)pyridazin-3-amine] |
| ≤ 10000 nM | ≤ 10000 nM | ≤ 10000 nM | > 10000 nM | > 10000 nM | ≤ 1000 nM | FC(F)c1cnnc(N(Cc2ccc(-c3noc(C(F)(F)F)n3)s2)c2cnccn2)c1 [Example GV, 5-(Difluoromethyl)-N-(pyrazin-2-yl)-N-({5-[5-(trifluoromethyl)-1,2,4-oxadiazol-3-yl]thiophen-2-yl}methyl)pyridazin-3-amine] |
| ≤ 10000 nM | ≤ 10000 nM | ≤ 10000 nM | > 10000 nM | > 10000 nM | ≤ 1000 nM | C[C@H]1CCCN1C(=O)c1cnnc(N(Cc2ccc(-c3noc(C(F)(F)F)n3)s2)c2cnccn2)c1 [Example GY, 5-[(2S)-2-Methylpyrrolidine-1-carbonyl]-N-(pyrazin-2-yl)-N-({5-[5-(trifluoromethyl)-1,2,4-oxadiazol-3-yl]thiophen-2-yl}methyl)pyridazin-3-amine] |
| ≤ 10000 nM | ≤ 10000 nM | ≤ 10000 nM | > 10000 nM | > 10000 nM | ≤ 10000 nM | CN1CCN(C(=O)c2cnnc(N(Cc3ccc(-c4noc(C(F)(F)F)n4)s3)c3cnccn3)c2)CC1 [Example EC, 5-(4-Methylpiperazine-1-carbonyl)-N-(pyrazin-2-yl)-N-({5-[5-(trifluoromethyl)-1,2,4-oxadiazol-3-yl]thiophen-2-yl}methyl)pyridazin-3-amine] |
| ≤ 10000 nM | ≤ 1000 nM | ≤ 500 nM | > 10000 nM | > 10000 nM | ≤ 500 nM | O=C(c1ccc(N(Cc2ccc(-c3noc(C(F)(F)F)n3)s2)c2cnccn2)nn1)N1CCC1 [Example FF, 6-(Azetidine-1-carbonyl)-N-(pyrazin-2-yl)-N-({5-[5-(trifluoromethyl)-1,2,4-oxadiazol-3-yl]thiophen-2-yl}methyl)pyridazin-3-amine] |
| ≤ 10000 nM | ≤ 10000 nM | ≤ 1000 nM | > 10000 nM | > 10000 nM | ≤ 500 nM | CC(C)OC1CN(C(=O)c2cnnc(N(Cc3ccc(-c4noc(C(F)(F)F)n4)s3)c3cnccn3)c2)C1 [Example GC, 5-[3-(Propan-2-yloxy)azetidine-1-carbonyl]-N-(pyrazin-2-yl)-N-({5-[5-(trifluoromethyl)-1,2,4-oxadiazol-3-yl]thiophen-2-yl}methyl)pyridazin-3-amine] |
| ≤ 10000 nM | ≤ 1000 nM | ≤ 500 nM | > 10000 nM | > 10000 nM | ≤ 500 nM | Nc1cnnc(N(Cc2ccc(-c3noc(C(F)(F)F)n3)s2)c2cnccn2)c1 [Example FL, N3-(Pyrazin-2-yl)-N3-({5-[5-(trifluoromethyl)-1,2,4-oxadiazol-3-yl]thiophen-2-yl}methyl)pyridazine-3,5-diamine] |
| ≤ 10000 nM | ≤ 10000 nM | ≤ 1000 nM | > 10000 nM | > 10000 nM | ≤ 500 nM | FC(F)(F)c1nc(-c2ccc(CN(c3cnccn3)c3cc(N4CCOCC4)cnn3)s2)no1 [Example FP, 5-(Morpholin-4-yl)-N-(pyrazin-2-yl)-N-({5-[5-(trifluoromethyl)-1,2,4-oxadiazol-3-yl]thiophen-2-yl}methyl)pyridazin-3-amine] |
| ≤ 10000 nM | ≤ 10000 nM | ≤ 1000 nM | > 10000 nM | > 10000 nM | ≤ 500 nM | CC(=O)Nc1cnnc(N(Cc2ccc(-c3noc(C(F)(F)F)n3)s2)c2cnccn2)c1 [Example FM, N-{6-[(Pyrazin-2-yl)({5-[5-(trifluoromethyl)-1,2,4-oxadiazol-3-yl]thiophen-2-yl}methyl)amino]pyridazin-4-yl}acetamide] |
| ≤ 10000 nM | ≤ 10000 nM | ≤ 1000 nM | > 10000 nM | > 10000 nM | ≤ 1000 nM | CNC(=O)c1cnnc(N(Cc2ccc(-c3noc(C(F)(F)F)n3)s2)c2cnccn2)c1 [Example DY, N-Methyl-6-[(pyrazin-2-yl)({5-[5-(trifluoromethyl)-1,2,4-oxadiazol-3-yl]thiophen-2-yl}methyl)amino]pyridazine-4-carboxamide] |
| ≤ 1000 nM | ≤ 1000 nM | ≤ 500 nM | > 10000 nM | > 10000 nM | ≤ 500 nM | O=C(c1ccc(N(Cc2ccc(-c3noc(C(F)(F)F)n3)s2)c2cnccn2)nn1)N1CCCC1 [Example FI, N-(Pyrazin-2-yl)-6-(pyrrolidine-1-carbonyl)-N-({5-[5-(trifluoromethyl)-1,2,4-oxadiazol-3-yl]thiophen-2-yl}methyl)pyridazin-3-amine] |
| ≤ 10000 nM | ≤ 10000 nM | ≤ 10000 nM | > 10000 nM | > 10000 nM | ≤ 1000 nM | FC(F)(F)c1nc(-c2ccc(CN(c3cnccn3)c3ncccn3)s2)no1 [Example AS, N-(Pyrimidin-2-yl)-N-({5-[5-(trifluoromethyl)-1,2,4-oxadiazol-3-yl]thiophen-2-yl}methyl)pyrazin-2-amine] |
| ≤ 10000 nM | ≤ 10000 nM | ≤ 10000 nM | > 10000 nM | > 10000 nM | ≤ 1000 nM | O=C(c1cnnc(N(Cc2ccc(-c3noc(C(F)(F)F)n3)s2)c2cnccn2)c1)N1CCCC1 [Example EA, N-(Pyrazin-2-yl)-5-(pyrrolidine-1-carbonyl)-N-({5-[5-(trifluoromethyl)-1,2,4-oxadiazol-3-yl]thiophen-2-yl}methyl)pyridazin-3-amine] |

| SMILES | IC50 (Human HDAC8) | IC50 (Human HDAC9) | IC50 (Human HDAC4) | IC50 (Human HDAC10) | IC50 (Human HDAC2) | IC50 (Human HDAC5) |
| --- | --- | --- | --- | --- | --- | --- |
| [O-][S+]1CCN(Cc2ccc(N(Cc3ccc(-c4noc(C(F)(F)F)n4)s3)c3cnccn3)nn2)CC1 [Example FO, 4-({6-[(Pyrazin-2-yl)({5-[5-(trifluoromethyl)-1,2,4-oxadiazol-3-yl]thiophen-2-yl}methyl)amino]pyridazin-3-yl}methyl)-1lambda4-thiomorpholin-1-one] | ≤ 10000 nM | ≤ 10000 nM | ≤ 1000 nM | > 10000 nM | > 10000 nM | ≤ 1000 nM |
